Assay results as given in ChEMBL document CHEMBL1909046, “DrugMatrix in vitro pharmacology data”.

Columns and labels:
[1] = target: Beta-3 adrenergic receptor (Homo sapiens, UniProt P13945); assay: DRUGMATRIX: Adrenergic beta3 radioligand binding (ligand: [125I] Cyanopindolol); format: cell membranes, HEK293, Membrane; conditions: hek293; Not Active = under 50% inhibition at 10 µM
[2] = target: 5-hydroxytryptamine receptor 4 (Cavia porcellus, UniProt O70528); format: cell membranes, Dunkin-Hartley, Striatum, Membrane; also: in other assays of this panel Not Active means under 50% inhibition at 10 µM
[3] = DRUGMATRIX: Glutamate, Kainate radioligand binding (ligand: [3H] Kainic acid); format: cell membranes, Rattus norvegicus, Wistar, Brain, Membrane; conditions: Not Active = under 50% inhibition at 10 µM
[4] = target: T1, Nitric oxide synthase, inducible (Mus musculus, UniProt P29477); design: species or system Escherichia coli;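 also: inhibition of iNOS enzyme activity measured with L-arginine as substrate; in other assays of this panel Not Active means under 50% inhibition at 10 µM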
T1 sequence (P29477 whole entry): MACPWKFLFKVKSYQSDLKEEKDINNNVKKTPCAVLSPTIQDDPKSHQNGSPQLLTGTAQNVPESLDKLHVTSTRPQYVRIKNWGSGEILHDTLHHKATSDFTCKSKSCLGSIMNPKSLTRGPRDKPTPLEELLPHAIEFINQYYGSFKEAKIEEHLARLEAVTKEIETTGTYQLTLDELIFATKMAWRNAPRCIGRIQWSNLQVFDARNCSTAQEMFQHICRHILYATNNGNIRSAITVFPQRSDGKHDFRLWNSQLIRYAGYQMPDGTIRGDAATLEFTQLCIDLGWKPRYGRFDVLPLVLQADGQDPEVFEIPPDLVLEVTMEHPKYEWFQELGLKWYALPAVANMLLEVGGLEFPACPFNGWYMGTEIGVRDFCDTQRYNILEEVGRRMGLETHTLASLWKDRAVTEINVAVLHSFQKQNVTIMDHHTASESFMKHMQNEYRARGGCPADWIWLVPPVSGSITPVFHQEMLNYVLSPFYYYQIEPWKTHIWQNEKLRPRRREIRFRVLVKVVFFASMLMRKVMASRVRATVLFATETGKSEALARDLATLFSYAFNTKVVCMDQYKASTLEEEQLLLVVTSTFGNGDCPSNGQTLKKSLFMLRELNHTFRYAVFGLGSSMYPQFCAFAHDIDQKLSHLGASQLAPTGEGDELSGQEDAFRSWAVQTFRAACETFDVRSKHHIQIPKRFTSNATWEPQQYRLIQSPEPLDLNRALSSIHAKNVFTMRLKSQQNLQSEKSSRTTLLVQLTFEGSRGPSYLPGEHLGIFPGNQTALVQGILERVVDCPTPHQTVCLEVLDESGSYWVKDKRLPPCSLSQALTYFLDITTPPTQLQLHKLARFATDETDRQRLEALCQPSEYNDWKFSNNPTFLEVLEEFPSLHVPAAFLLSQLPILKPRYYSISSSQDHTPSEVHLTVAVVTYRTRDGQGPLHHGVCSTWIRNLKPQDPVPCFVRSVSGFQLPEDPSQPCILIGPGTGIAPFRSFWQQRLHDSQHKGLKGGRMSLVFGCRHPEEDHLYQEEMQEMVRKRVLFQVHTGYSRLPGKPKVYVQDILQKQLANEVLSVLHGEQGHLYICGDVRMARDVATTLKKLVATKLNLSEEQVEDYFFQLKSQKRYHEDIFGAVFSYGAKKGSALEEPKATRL

[5] = target: Delta-type opioid receptor (Homo sapiens, UniProt P41143); format: cell membranes, HEK293, Membrane; conditions: hek293; also: in other assays of this panel Not Active means under 50% inhibition at 10 µM
[6] = target: Platelet-activating factor receptor (Homo sapiens, UniProt P25105); format: tissue-based; also: in other assays of this panel Not Active means under 50% inhibition at 10 µM
[7] = target: Mitogen-activated protein kinase 3 (Homo sapiens, UniProt P27361); assay: DRUGMATRIX: Protein Serine/Threonine Kinase, ERK1 enzyme inhibition (substrate: Myelin Basic Protein); design: species or system Escherichia coli; conditions: Not Active = under 50% inhibition at 10 µM
Chain of Mitogen-activated protein kinase 3 (P27361 whole entry): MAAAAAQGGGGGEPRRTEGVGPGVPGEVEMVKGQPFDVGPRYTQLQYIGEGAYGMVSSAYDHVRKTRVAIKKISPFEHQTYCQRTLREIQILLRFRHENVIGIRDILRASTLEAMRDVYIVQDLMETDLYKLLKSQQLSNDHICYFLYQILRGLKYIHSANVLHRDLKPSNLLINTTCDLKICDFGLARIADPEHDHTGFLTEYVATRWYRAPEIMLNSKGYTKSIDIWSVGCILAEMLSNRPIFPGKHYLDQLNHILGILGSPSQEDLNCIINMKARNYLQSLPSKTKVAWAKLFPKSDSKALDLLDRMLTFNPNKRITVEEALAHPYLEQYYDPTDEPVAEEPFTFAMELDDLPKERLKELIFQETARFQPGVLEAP

Chain of Beta-3 adrenergic receptor (P13945 whole entry): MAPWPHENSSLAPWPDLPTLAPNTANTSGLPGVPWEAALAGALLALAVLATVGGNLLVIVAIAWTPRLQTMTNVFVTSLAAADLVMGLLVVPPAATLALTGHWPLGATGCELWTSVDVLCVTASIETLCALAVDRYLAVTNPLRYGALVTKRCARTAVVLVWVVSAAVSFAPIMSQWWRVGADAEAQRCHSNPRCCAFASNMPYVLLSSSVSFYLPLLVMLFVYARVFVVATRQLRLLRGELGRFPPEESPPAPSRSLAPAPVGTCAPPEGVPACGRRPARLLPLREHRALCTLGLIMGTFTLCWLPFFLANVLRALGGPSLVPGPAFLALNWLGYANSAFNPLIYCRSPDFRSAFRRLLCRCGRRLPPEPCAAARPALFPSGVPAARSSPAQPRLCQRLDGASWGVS
Chain of Platelet-activating factor receptor (P25105 whole entry): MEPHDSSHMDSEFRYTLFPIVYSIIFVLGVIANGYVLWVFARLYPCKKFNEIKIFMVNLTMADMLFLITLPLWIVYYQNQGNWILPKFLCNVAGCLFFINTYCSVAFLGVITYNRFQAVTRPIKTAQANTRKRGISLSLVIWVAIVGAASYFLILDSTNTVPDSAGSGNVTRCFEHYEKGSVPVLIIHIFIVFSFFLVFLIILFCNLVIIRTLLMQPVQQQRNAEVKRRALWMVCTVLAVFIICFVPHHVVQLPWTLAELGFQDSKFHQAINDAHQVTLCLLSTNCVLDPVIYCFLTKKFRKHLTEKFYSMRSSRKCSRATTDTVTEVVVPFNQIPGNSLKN
Chain of Delta-type opioid receptor (P41143 whole entry): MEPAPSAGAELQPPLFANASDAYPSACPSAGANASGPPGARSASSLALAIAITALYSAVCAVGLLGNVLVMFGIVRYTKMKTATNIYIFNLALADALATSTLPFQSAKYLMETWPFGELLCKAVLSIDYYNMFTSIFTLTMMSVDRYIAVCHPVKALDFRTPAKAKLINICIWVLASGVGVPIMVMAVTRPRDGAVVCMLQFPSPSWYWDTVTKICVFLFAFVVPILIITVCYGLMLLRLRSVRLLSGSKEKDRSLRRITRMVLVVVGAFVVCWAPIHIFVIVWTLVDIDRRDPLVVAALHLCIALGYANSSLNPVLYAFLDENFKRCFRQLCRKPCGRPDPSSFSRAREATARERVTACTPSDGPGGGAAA
Chain of 5-hydroxytryptamine receptor 4 (O70528 whole entry): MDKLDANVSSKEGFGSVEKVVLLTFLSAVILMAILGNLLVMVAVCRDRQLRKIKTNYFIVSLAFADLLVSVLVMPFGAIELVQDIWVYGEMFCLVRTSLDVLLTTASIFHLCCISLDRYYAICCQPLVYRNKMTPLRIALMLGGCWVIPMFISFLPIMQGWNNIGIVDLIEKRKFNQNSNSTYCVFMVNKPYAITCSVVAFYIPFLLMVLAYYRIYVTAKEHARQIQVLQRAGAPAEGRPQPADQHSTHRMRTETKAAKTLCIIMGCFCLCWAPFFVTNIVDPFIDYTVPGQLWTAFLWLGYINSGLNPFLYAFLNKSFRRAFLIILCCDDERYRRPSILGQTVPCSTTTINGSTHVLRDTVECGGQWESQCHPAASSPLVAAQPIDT

CC[C@H](C)C(=O)O[C@H]1CCC=C2C=C[C@H](C)[C@H](CC[C@@H]3C[C@@H](O)CC(=O)O3)[C@H]21 [MEVASTATIN]
Not Active: IC50 [1] | IC50 [2] | IC50 [3] | Ki [3] | IC50 [4] | IC50 [5] | IC50 [6] | IC50 [7]

CS(=O)(=O)c1ccc(C2=C(c3ccccc3)C(=O)OC2)cc1 [ROFECOXIB]
Not Active: IC50 [1] | IC50 [2] | IC50 [3] | Ki [3] | IC50 [4] | IC50 [5] | IC50 [6] | IC50 [7]

Cc1cn([C@H]2C=C[C@@H](CO)O2)c(=O)[nH]c1=O [STAVUDINE]
Not Active: IC50 [1] | IC50 [2] | IC50 [3] | Ki [3] | IC50 [4] | IC50 [5] | IC50 [6] | IC50 [7]

Nc1nc(N)c2nc(-c3ccccc3)c(N)nc2n1
Not Active: IC50 [1] | IC50 [2] | IC50 [3] | Ki [3] | IC50 [4] | IC50 [5] | IC50 [6] | IC50 [7]

Cc1[nH]c(=O)c(C#N)cc1-c1ccncc1 [MILRINONE]
Not Active: IC50 [1] | IC50 [2] | IC50 [3] | Ki [3] | IC50 [4] | IC50 [5] | IC50 [6] | IC50 [7]

C[C@]12CCC(=O)C[C@@H]1CC[C@@H]1[C@@H]2CC[C@]2(C)[C@@H](O)CC[C@@H]12 [STANOLONE]
Not Active: IC50 [1] | IC50 [2] | IC50 [3] | Ki [3] | IC50 [4] | IC50 [5] | IC50 [6] | IC50 [7]

CC1(C)[C@H](C(=O)O)N2C(=O)C[C@H]2S1(=O)=O [SULBACTAM]
Not Active: IC50 [1] | IC50 [2] | IC50 [3] | Ki [3] | IC50 [4] | IC50 [5] | IC50 [6] | IC50 [7]

CCOC(=O)C1=C(C)NC(C)=C(C(=O)OCC)C1c1ccccc1/C=C/C(=O)OC(C)(C)C [LACIDIPINE]
Not Active: IC50 [1] | IC50 [2] | IC50 [3] | Ki [3] | IC50 [4] | IC50 [5] | IC50 [6] | IC50 [7]

CC(N)C12CC3CC(CC(C3)C1)C2 (stereo not given) [RIMANTADINE]
Not Active: IC50 [1] | IC50 [2] | IC50 [3] | Ki [3] | IC50 [4] | IC50 [5] | IC50 [6] | IC50 [7]

CO[C@@]12[C@H](COC(N)=O)C3=C(C(=O)C(C)=C(N)C3=O)N1C[C@@H]1N[C@@H]12 [MITOMYCIN]
Not Active: IC50 [1] | IC50 [2] | IC50 [3] | Ki [3] | IC50 [4] | IC50 [5] | IC50 [6] | IC50 [7]
